Legend:
Assay type in all cases: cell-based
apolipoprotein B protein = test: Apolipoprotein B protein secreted from primary Cynomolgous monkey hepatocytes, ELISA; conditions: primary Cynomolgous hepatocytes
Protocol: Apolipoprotein B protein secreted from primary Cynomolgous hepatocytes treated with 150 and 300 nM of oligonucleotide was measured by ELISA using an apolipoprotein B protein specific kit (ALerCHEK Inc., Portland, Me.). Each result represents the average of 3 experiments.
Apolipoprotein B protein secreted primary Cynomolgous hepatocytes treated with 50 and 150 nM of ISIS 315089 and ISIS 281625 was measured by ELISA using an apolipoprotein B protein specific kit (ALerCHEK Inc., Portland, Me.). Each result represents the average of 3 experiments.
Apolipoprotein B protein secreted from primary Cynomolgous hepatocytes treated with 50 and 150 nM of ISIS 271009 and ISIS 301027 was measured by ELISA using an apolipoprotein B protein specific kit (ALerCHEK Inc., Portland, Me.). Each result represents the average of 3 experiments.

[1] = test system: Cynomolgous monkey apolipoprotein B mRNA; test: Apolipoprotein B mRNA in primary Cynomolgous monkey hepatocytes, real-time PCR; conditions: primary Cynomolgous monkey hepatocytes, 24 hours (Table 46)
Protocol: Antisense inhibition by ISIS 301012 was compared to that of ISIS 326358, which is a perfect match to the Cynomolgous monkey apolipoprotein B sequence to which ISIS 301012 hybridizes. The compounds were analyzed for their effect on Cynomolgous monkey apolipoprotein B mRNA levels in primary Cynomolgous monkey hepatocytes purchased from In Vitro Technologies ([…].). Pre-plated primary Cynonomolgous monkey hepatocytes were purchased from InVitro Technologies (Baltimore, Md.). Cells were cultured in high-glucose DMEM (Invitrogen Corporation, Carlsbad, Calif.) supplemented with 10% fetal bovine serum (Invitrogen Corporation, Carlsbad, Calif.), 100 units/mL and 100 μg/mL streptomycin (Invitrogen Corporation, Carlsbad, Calif.).
Primary Cynomolgous monkey hepatocytes were treated with 10, 50, 150 or 300 nM of antisense oligonucleotides for 48 hours. ISIS 113529 (SEQ ID NO: 859) was used as a control oligonucleotide. Untreated cells also served as a control. Cynomolgous monkey apolipoprotein B mRNA levels were quantitated by real-time PCR using the human apolipoprotein B and GAPDH primers and probes described by other examples herein. The results, shown in Table 44, are the average of 6 experiments and are expressed as percent inhibition of apolipoprotein B mRNA normalized to untreated control cells.
In a further embodiment of the invention, antisense inhibition by ISIS 281625 was compared to that by ISIS 315089, which is a perfect match to the Cynomolgous monkey apolipoprotein B sequence to which ISIS 281625 hybridizes. Primary Cynomolgous monkey hepatocytes, cultured as described herein, were treated with 10, 50, 150 or 300 nM of ISIS 315089 or ISIS 281625 for 24 hours. Cells were treated with the control oligonucleotide ISIS 13650 (SEQ ID NO: 806) at 150 and 300 nM or ISIS 113529 (SEQ ID NO: 859) at 300 nM. Untreated cells also served as a control. Cynomolgous monkey apolipoprotein B mRNA levels in primary Cynomolgous monkey hepatocytes was quantitated using real-time PCR with human primers and probe as described by other examples herein. The results, shown in Table 46, are the average of 3 experiments and are expressed as percent inhibition of apolipoprotein B mRNA normalized to untreated control cells.
ISIS 271009 (SEQ ID NO: 319) and ISIS 301027 (SEQ ID NO: 262) were also tested for their effects on apolipoprotein B mRNA and protein expression in Cynomolgous primary hepatoctyes. Cells, cultured as described herein, were treated with 10, 50 and 150 nM of ISIS 271009 or ISIS 301027 for 24 hours. Cells were treated with the control oligonucleotide ISIS 113529 (SEQ ID NO: 859) at 150 nM. Untreated cells also served as a control. Cynomolgous monkey apolipoprotein B mRNA levels in primary Cynomolgous monkey hepatocytes was quantitated using real-time PCR with human primers and probe as described by other examples herein. The results, shown in Table 48, are the average of 2 experiments and are expressed as percent inhibition of apolipoprotein B mRNA normalized to untreated control cells.

lipoprotein(a) = test: Lipoprotein(a) particle secretion from primary human hepatocytes, ELISA; conditions: 150 nM, 24 hours
Protocol: Primary human hepatocytes (InVitro Technologies, Baltimore, Md.), cultured and transfected as described herein, were treated for 24 hours with 50 or 150 nM of ISIS 271009 (SEQ ID NO: 319), 281625 (SEQ ID NO: 224), 301012 (SEQ ID NO: 247) or 301027 (SEQ ID NO: 262). Cells were also treated with 150 nM of the control oligonucleotides ISIS 113529 (SEQ ID NO: 859) or ISIS 13650 (SEQ ID NO: 806). Untreated cells served as a control. Following 24 hours of oligonucleotide treatment, the amount of lipoprotein(a) in the culture medium collected from the treated cells was measured using a commercially available ELISA kit (ALerCHEK Inc., Portland, Me.). The results are the average of three experiments and are expressed as percent change in lipoprotein(a) secretion relative to untreated controls.

[2] = test system: human apolipoprotein(a) mRNA; test: Apolipoprotein(a) mRNA expression in primary human hepatocytes, real-time PCR; conditions: primary human hepatocytes, 24 hours
Protocol: Primary human hepatocytes (InVitro Technologies, Baltimore, Md.), cultured and transfected as described herein, were treated with 5, 10, 50 or 150 nM of ISIS 271009 (SEQ ID NO: 319), 281625 (SEQ ID NO: 224), 301012 (SEQ ID NO: 247) or 301027 (SEQ ID NO: 262). Cells were also treated with 50 or 150 nM of the control oligonucleotides ISIS 113529 (SEQ ID NO: 859) or ISIS 13650 (SEQ ID NO: 806). Untreated cells served as a control. Following 24 hours of oligonucleotide treatment, apolipoprotein(a) mRNA expression was measured by quantitative real-time PCR as described in other examples herein.
Probes and primers to human apolipoprotein(a) were designed to hybridize to a human apolipoprotein(a) sequence, using published sequence information (GenBank accession number NM_005577.1, incorporated herein as SEQ ID NO: 860). For human apolipoprotein(a) the PCR primers were: […]
forward primer: […] (SEQ ID NO: 861)
reverse primer: TGCGTCTGAGCATTGCGT (SEQ ID NO: 862) and the PCR probe was: FAM-[…]-TAMRA (SEQ ID NO: 863) where FAM is the fluorescent dye and TAMRA is the quencher dye.
Data are the average of three experiments and are expressed as percent inhibition relative to untreated controls.

Substance: 13650 (TCCCGCCTGTGACATGCATT; listed as DNA, chemistry not given here) [compound 13650]
- % Reduction of monkey apolipoprotein B protein secretion (apolipoprotein B protein; 50 nM (Table 47)): 16%
- % Reduction of monkey apolipoprotein B protein secretion (apolipoprotein B protein; 150 nM (Table 47)): 13%
- % Reduction of monkey apolipoprotein B protein secretion (apolipoprotein B protein; 150 nM (Table 49), "+" = secretion increased): +1%
- % Inhibition of apolipoprotein B mRNA ([1]; 150 nM, "+" = expression increased): +50%
- % Inhibition of apolipoprotein B mRNA ([1]; 300 nM): 33%
- % Change in lipoprotein(a) secretion (lipoprotein(a)): +14%
- % Change in apolipoprotein(a) mRNA expression following antisense inhibition of apolipoprotein B ([2]; 50 nM): −68%
- % Change in apolipoprotein(a) mRNA expression following antisense inhibition of apolipoprotein B ([2]; 150 nM): −37%

From patent publication US7803930B2, “Antisense modulation of apolipoprotein B-expression” (Isis Pharmaceuticals, Inc., priority 2002, dated 2010)
